US10449152B2, “Drug loaded microspheres for post-operative chronic pain” (priority 2014, dated 2019)

What was measured:
[1] = test system: post-operative hyperalgesia after paw incision; test: paw incision post-operative hyperalgesia, injection at the sciatic nerve; format: in vivo, rats; conditions: nerve block before paw incision
Procedure: Microspheres of Example 1 were also tested for anti-hyperalgesic effects after rodent surgery. […] If microspheres of Example 1 were injected at the sciatic nerve approximately 1.5 hours before the surgery, the subsequent post-operative hyperalgesia was suppressed for about 4 days. In contrast, nerve block by 0.5% by weight aqueous bupivacaine solution suppressed post-operative hyperalgesia for about 6 hours. Microspheres of Example 2 were ineffective against post-incisional pain.

[2] = test system: sciatic nerve; test: sciatic nerve block, latency for leg withdrawal from noxious heat; format: in vivo, male S-D rats; conditions: about 0.6 milliliters next to the sciatic nerve; heat stimulus of about 56° C.
Procedure: The anti-nociceptive activity of EXPAREL® particles was also tested. The latency for leg withdrawal in male S-D rats from a noxious heat stimulus of about 56° C. applied to the plantar surface of the paw was used to test the duration of functional sciatic nerve block achieved using EXPAREL®. The normal latency for paw withdrawal was about 2 seconds and “maximal sensory blockade” was characterized by a latency of about 12 seconds. Sensory blockade of about 0.6 milliliters of EXPAREL® containing about 7.8 milligrams of bupivacaine, injected next to the sciatic nerve of an adult male S-D rat weighing from about 310 grams to about 420 grams, which was equivalent to about 25 milligrams of bupivacaine per kilogram, was determined by the time from injection until the latency returned to about 7 seconds, half way back to the pre-injection latency of about 2 seconds. By this criterion, the sensing block from EXPAREL® lasted about 240 minutes, and that from 0.6 milliliter solution of about 0.5% by weight bupivacaine, which was used as a control, lasted about 120 minutes.

[3] = test system: sciatic nerve; test: sciatic nerve block in rats (paw pinch, motor block); format: in vivo; conditions: single bolus of about 0.4 milliliters at the sciatic nerve
Procedure: The microspheres of Example 1 were also tested for sciatic nerve block and for subcutaneous infiltration anesthesia in rats. Sciatic nerves were injected with nominal doses of microspheres of Example 1, having about 40 milligrams of bupivacaine, by injection as a single bolus of about 0.4 milliliters. […] Half-recovery of these respective functions occurred at about 42±6 hours and 36±3 hours, and normal, pre-block function was restored by about 63±8 hours for nociception and about 56±7 hours for motor block. By comparison, injection of about 0.4 milliliters of about 0.5% by weight aqueous bupivacaine solution gave complete blocks for only about 0.5 hours to about 1 hours for nociception and about 1 hour for motor functions, with complete recovery by about 3 hours for both functions.

[4] = test system: post-operative allodynia and hyperalgesia; test: incision and blunt dissection of the back skin, post-operative allodynia and hyperalgesia; format: in vivo, rats; conditions: about 0.4 milliliters subcutaneous infiltration
Procedure: In a second surgical scenario, Microspheres of Example 1 were injected as a subcutaneous infiltration in the thoraco-lumbar region before an incision and blunt dissection of the back skin. Microspheres of Example 1, including about 40 milligrams of bupivacaine, were injected as a single bolus of about 0.4 milliliters. The injection produced anesthesia to VFH pokes at the injected area for about 6 hours and anesthesia to pin pricks for about 12 hours. Post-operative allodynia and hyperalgesia in this model lasted for about 14 days, but were suppressed for approximately 5 days and 3 days, respectively, by microspheres of Example 1 injected approximately 2 hours before surgery. About 0.4 milliliters of 0.5% by weight aqueous bupivacaine solution was ineffective in reducing post-operative hypersensitivity, just as the microspheres of Example 2 were also ineffective.

CCCCN1CCCCC1C(=O)Nc1c(C)cccc1C (stereo not drawn) [bupivacaine]
time for which post-operative hyperalgesia was suppressed [1]: about 6 hours | duration of sensory block (time until latency returned to about 7 seconds) [2]: about 120 minutes | duration of complete motor block (total flaccid paralysis) [3]: about 1 hours | time to normal, pre-block function (complete recovery), motor [3]: about 3 hours | time to normal, pre-block function (complete recovery), nociception [3]: about 3 hours | reduction of post-operative hypersensitivity [4]: ineffective
